Among the test systems are A498; CAKI-1; CCRF-CEM; COLO 205; HOP-18; HOP-92; HT-29; K562; LOX IMVI; LXFL 529; M19-MEL; NCI-H23; OVCAR-4; RXF 393; SK-MEL-28; SK-MEL-2; UO-31.
Holding throughout (experiment): growth of human tumour cells (NCI), 48 h

Each structure is given as a SMILES string.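 Step 1: Grow cells in 96-well plates. Step 2: Expose to compound for 48 hours at 5 concentrations. Step 3: Interpolate endpoints linearly; if unreached, use highest concentration. GI50 = concentration required for 50% inhibition of growth.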 Activity calls are given as the source filed them. Cut-off read from the data, not from the text of the source: active = GI50 up to about 1.1 µM and inactive = higher.

As to `COC(=O)C1=CCS(=O)(=O)C1`, the GI50 with A498 is > 100 µM (inactive); in the assay with CAKI-1, > 100 µM (inactive); in the assay on CCRF-CEM, > 10 µM (inactive); in the assay with COLO 205, > 100 µM (inactive); in the assay on HOP-18, > 100 µM (inactive); with HOP-92 it was > 100 µM (inactive). In addition, the GI50 with HT-29, in the assay on K562, in the assay on LOX IMVI, with LXFL 529, in the assay on M19-MEL and with NCI-H23 was > 100 µM (inactive) each time. In addition, the GI50 with OVCAR-4, in the assay on RXF 393, in the assay on SK-MEL-28, in the assay on SK-MEL-2 and in the assay on UO-31 was > 100 µM (inactive) in each case.
As to `CCc1cccc(C)c1NC(=O)CCc1nnc(SC)o1`, the GI50 in the assay on A498, with CAKI-1, with CCRF-CEM, in the assay on COLO 205, in the assay on HOP-18 and with HOP-92 was > 100 µM (inactive) each time. For the same compound, the GI50 with HT-29, in the assay on K562, with LOX IMVI, in the assay with LXFL 529, in the assay on M19-MEL and in the assay with NCI-H23 was > 100 µM (inactive) throughout. Besides, the GI50 in the assay on OVCAR-4, in the assay on RXF 393, in the assay with SK-MEL-28, in the assay on SK-MEL-2 and with UO-31 was > 100 µM (inactive) throughout.
Consider `N#CC(/C(=N/NC(N)=S)C(=O)Nc1cccc(Cl)c1)c1ccccc1` (stereo not given), for which the GI50 with A498, in the assay on CAKI-1, in the assay with CCRF-CEM, with COLO 205, in the assay with HOP-18 and in the assay with HOP-92 was > 100 µM (inactive) each time. For the same compound, the GI50 with HT-29, in the assay with K562, with LXFL 529, in the assay on M19-MEL, in the assay with NCI-H23 and in the assay on OVCAR-4 was > 100 µM (inactive) each time. The GI50 in the assay with SK-MEL-28, in the assay with SK-MEL-2 and in the assay on UO-31 was > 100 µM (inactive) throughout.
`O=C(CC1(O)C(=O)Nc2c(Cl)ccc(Cl)c21)c1ccc(Cl)cc1Cl` (stereo not given): the GI50 is 26.3 µM (inactive) in the assay with A498; 20.3 µM (inactive) in the assay with CAKI-1; 17.6 µM (inactive) in the assay with COLO 205; 35.1 µM (inactive) with HOP-18; 21 µM (inactive) in the assay with HOP-92; 15.3 µM (inactive) in the assay with HT-29. Moreover, the GI50 in the assay with LOX IMVI is 14.3 µM (inactive); in the assay on LXFL 529 it was 14.6 µM (inactive); with M19-MEL, 7.16 µM (inactive); with NCI-H23, 19.9 µM (inactive); in the assay on OVCAR-4, 10.4 µM (inactive); in the assay on RXF 393 it was 25 µM (inactive). The results for the GI50 in the assay with SK-MEL-28, with SK-MEL-2 and with UO-31 were 21.7 µM (inactive), 21.3 µM (inactive) and 20.7 µM (inactive), respectively.
On to `[O-][S+]1Cc2ccccc2CSS1` (stereo not given), for which the GI50 in the assay with A498 was 56.5 µM (inactive); in the assay on CAKI-1, 16.3 µM (inactive); with COLO 205, 14.2 µM (inactive); in the assay with HOP-18, 27.9 µM (inactive); in the assay on HOP-92 it was 15.6 µM (inactive); in the assay with HT-29, 14.4 µM (inactive). For the same compound, the GI50 with K562 was 12.3 µM (inactive); in the assay on LOX IMVI, 3.96 µM (inactive); with LXFL 529 it was 14.1 µM (inactive); with M19-MEL it was 20.2 µM (inactive); in the assay on NCI-H23 it was 14.3 µM (inactive); in the assay with OVCAR-4, 16.6 µM (inactive). Moreover, the GI50 with RXF 393 was 3.85 µM (inactive); in the assay on SK-MEL-28, 13.8 µM (inactive); in the assay with UO-31 it was 17.9 µM (inactive).
Turning to `CC(C)C1C(=O)NC(CO)Cc2c[nH]c3c(C(c4c[nH]c5ccccc45)C(O)CO)ccc(c23)N1C` (stereo not given), the GI50 in the assay on A498 was 14.5 µM (inactive); with CCRF-CEM, 30.1 µM (inactive); with COLO 205 it was 4.79 µM (inactive); in the assay with HOP-18 it was 5.56 µM (inactive); with HOP-92 it was 0.612 µM (active); with HT-29, > 100 µM (inactive). Moreover, the GI50 with K562 is 4.19 µM (inactive); in the assay on LOX IMVI, > 100 µM (inactive); with LXFL 529 it was 96.4 µM (inactive); in the assay with M19-MEL it was > 100 µM (inactive); in the assay with NCI-H23, > 100 µM (inactive); with OVCAR-4 it was > 100 µM (inactive). Besides, the GI50 with RXF 393, in the assay on SK-MEL-28, in the assay on SK-MEL-2 and with UO-31 was > 100 µM (inactive) each time.
`Cc1ccc(F)c2c(=O)cc(-c3ccccc3)[nH]c12`: the GI50 in the assay on CAKI-1, in the assay with CCRF-CEM, with COLO 205, in the assay on HOP-18, with HOP-92 and with HT-29 was > 100 µM (inactive) each time. For the same compound, the GI50 in the assay on K562, with LOX IMVI, with LXFL 529, in the assay with M19-MEL, with NCI-H23 and with OVCAR-4 was > 100 µM (inactive) in each case. Also, the GI50 was > 100 µM (inactive) with RXF 393, > 100 µM (inactive) in the assay with SK-MEL-28, > 100 µM (inactive) in the assay with SK-MEL-2 and 60.3 µM (inactive) in the assay on UO-31.
For `CCOc1cn(C2OC(CO)C(O)C2O)c(=O)[nH]c1=O` (stereo not given), the GI50 in the assay with A498 was > 100 µM (inactive); with CAKI-1, > 100 µM (inactive); in the assay with CCRF-CEM, > 100 µM (inactive); in the assay on COLO 205, 95.5 µM (inactive); with HOP-18, > 100 µM (inactive); in the assay with HOP-92 it was > 100 µM (inactive). For the same compound, the GI50 in the assay on HT-29, in the assay with K562, with LOX IMVI, in the assay with LXFL 529, in the assay on M19-MEL and in the assay on NCI-H23 was > 100 µM (inactive) each time. For the same compound, the GI50 in the assay on RXF 393, in the assay on SK-MEL-28, in the assay on SK-MEL-2 and in the assay on UO-31 was > 100 µM (inactive) throughout.
In the case of `CCOc1ccc(N(CC(=O)N2CC(=O)Nc3cc(C)c(C)cc32)C(C)=O)cc1`, the GI50 in the assay with CAKI-1 was > 100 µM (inactive); with CCRF-CEM, > 100 µM (inactive); in the assay with COLO 205, > 100 µM (inactive); in the assay on HOP-18 it was > 100 µM (inactive); in the assay on HOP-92, 83.2 µM (inactive); with HT-29, > 100 µM (inactive). The GI50 with K562, with LOX IMVI, in the assay with LXFL 529, in the assay on M19-MEL, with NCI-H23 and with OVCAR-4 was > 100 µM (inactive) in each case. Also, the GI50 with RXF 393 is > 100 µM (inactive); with SK-MEL-28 it was > 100 µM (inactive); with SK-MEL-2, > 100 µM (inactive); in the assay on UO-31 it was 75.7 µM (inactive).
Regarding `O=C1CCC2(c3ccc(F)cc3)Nc3cc(Cl)ccc3N12` (stereo not given), the GI50 is > 100 µM (inactive) in the assay with A498; > 100 µM (inactive) in the assay with CCRF-CEM; > 100 µM (inactive) in the assay with COLO 205; 48.3 µM (inactive) with HOP-18; > 100 µM (inactive) in the assay with HT-29; 44.6 µM (inactive) in the assay with K562. The GI50 is > 100 µM (inactive) in the assay with LOX IMVI; 65.5 µM (inactive) with LXFL 529; > 100 µM (inactive) in the assay with M19-MEL; 38.3 µM (inactive) in the assay on NCI-H23; 48.6 µM (inactive) in the assay with OVCAR-4; 88.9 µM (inactive) in the assay on RXF 393. Besides, the GI50 in the assay with SK-MEL-28 was > 100 µM (inactive); with SK-MEL-2, > 100 µM (inactive); in the assay with UO-31, 94.2 µM (inactive).
In the case of `COc1ccc(C2(CN(C)C)COc3cc(OC)c(OC)cc3C2=O)cc1OC` (stereo not given), the GI50 with A498 was 74.8 µM (inactive); with CAKI-1, 42.1 µM (inactive); in the assay with CCRF-CEM it was 19.6 µM (inactive); in the assay with COLO 205, 26.6 µM (inactive); with HOP-18, > 100 µM (inactive); in the assay on HOP-92, 79.3 µM (inactive). Moreover, the GI50 in the assay on HT-29 was 46.7 µM (inactive); with K562, 31.6 µM (inactive); with LOX IMVI, 16.6 µM (inactive); in the assay with LXFL 529 it was 20.1 µM (inactive); with M19-MEL, 66.8 µM (inactive); with NCI-H23, 32.7 µM (inactive). Moreover, the GI50 is 34.6 µM (inactive) in the assay with OVCAR-4, 31.8 µM (inactive) with RXF 393, > 100 µM (inactive) in the assay with SK-MEL-28 and 44.8 µM (inactive) with UO-31.
Take `COC(=O)N/N=C(/CCN1CCCC1)CC(c1ccccc1)c1c(O)c2ccccc2oc1=O` (stereo not given): the GI50 in the assay on A498, in the assay on CAKI-1, in the assay with CCRF-CEM, in the assay on COLO 205, with HOP-18 and in the assay on HT-29 was > 100 µM (inactive) in each case. For the same compound, the GI50 in the assay on K562, in the assay with LOX IMVI, in the assay with LXFL 529, with M19-MEL, in the assay on NCI-H23 and in the assay with OVCAR-4 was > 100 µM (inactive) throughout. Besides, the GI50 with RXF 393 was > 100 µM (inactive); in the assay on SK-MEL-28, > 100 µM (inactive); in the assay with SK-MEL-2, > 100 µM (inactive); in the assay on UO-31, 61.4 µM (inactive).

(Values after ChEMBL document CHEMBL1201862, “PubChem BioAssay data set” (2004).)
